Assay results reported in patent publication US11712434B2, “Compound having anti-cancer effect, and preparation method therefor and use thereof” (3D MEDICINES (BEIJING) CO., LTD., priority 2016, dated 2023).

Key:
Experiment in all cases: Cell proliferation assay (Alamar Blue)
Type in all cases: cell-based
MFM-223 = MFM-223 tumor cell line, 6 days culture
Description: (§1) 1. Instruments and Materials • Thermo 311 CO2 incubator; Haier biosafety cabinet; Molecular Devices microplate reader; Xiangyi brand L530 desktop low speed centrifuge; Olympus IX51 inverted fluorescence microscope, DMEM, RPMI 1640, MEM, DMEM/F12 1:1 medium, Fetal bovine serum, 0.25% trypsin solution, phosphate buffer (Thermo Fisher Shanghai Co., Ltd.); sigma dimethyl sulfoxide (DMSO), resazurin; 54 commercial tumor cell lines (including 26 liver cancer cell lines). Experimental drugs: compounds 1-12 and active drug Linifanib; chemotherapeutic drug Doxorubicin (HY-15142; Shanghai Qianyuan Biomedical Technology Co., Ltd.).
(§2) 2. Experimental Methods • 2.1 Cultivation of Different Cell Lines • 54 cell lines were cultured in a culture medium containing fetal bovine serum and placed in a 5% CO2 incubator at 37° C. for incubation. The cells were all grown in an adherent state, and the growth was observed under an inverted microscope, and subculture was performed when the cell confluence rate reached 80%-90%. The proportion and quantity of passage were determined by experimental needs. The ratio of subculture of this cell line was generally 1:2^˜1:3. • 2.2 Inhibition Effect on the Proliferation of Different Tumor Cell Lines • Cell test: 54 cell lines in logarithmic growth phase were inoculated in 96-well culture plates at 500^˜1×10^4/well (the optimal seeding density of each cell line was determined in pre-experiment), After incubating at 37° C. for 4 h in a 5% CO2 humidification incubator, added 10 μL of compounds 1-12 or Linifanib to each well, and tested 9 drug concentration gradients for each compound (diluted from the highest concentration of the test by 3.16 times). The solubility of each compound was different at a starting concentration of 100 or 30 μM, respectively. The QC reference compound Doxorubicin was added simultaneously to each cell line test, and the final drug concentrations were 10, 3.16, 1, 0.31, 0.1, 0.03, 0.01, 0.003, and 0.001 μM, respectively. In addition, a positive control group (100% inhibition) and a negative control group (0% inhibition) were set at the same time. The drug group was repeated for 2 wells per concentration, and the positive control group and the negative control group were repeated for 6 wells. After the culture was continued for 6 days in the incubator, AlamarBlue test operation was followed; • AlamarBlue test procedure: Incubated with 10 μL of AlamarBlue reagent per well for 1-4 h, shook for 1-2 min, MD microplate reader EX: 560 nm, EM: 590 nm wavelength to measure fluorescence, recorded the results, calculated the cell inhibition rate of the compound of the invention. Cell inhibition rate (%)=(A0% inhibition−A administration)/(A0% inhibition−A100% inhibition)×100%, and then using the method of nonlinear regression using GraphPad Prism 5.0 or MATILAB software (usually using four parameters) to graph and obtain a drug dose response curve to obtain an IC50 value of the compound of the present invention acting on a cancer cell line.

TE-15 = TE-15 tumor cell line, 6 days culture
Description: as §1, §2

HEPG2 = HEPG2 liver cancer cell line, 6 days culture
Description: as §1, §2

TE-6 = TE-6 tumor cell line, 6 days culture
Description: as §1, §2

MDA-MB-231 = MDA-MB-231 tumor cell line, 6 days culture
Description: as §1, §2

SNU354 = SNU354 liver cancer cell line, 6 days culture
Description: as §1, §2

22RV1 = 22RV1 tumor cell line, 6 days culture
Description: as §1, §2

HUH6 = HUH6 liver cancer cell line, 6 days culture
Description: as §1, §2

SNU387 = SNU387 liver cancer cell line, 6 days culture
Description: as §1, §2

Li-7 = Li-7 liver cancer cell line, 6 days culture
Description: as §1, §2

SNU761 = SNU761 liver cancer cell line, 6 days culture
Description: as §1, §2

JHH7 = JHH7 liver cancer cell line, 6 days culture
Description: as §1, §2

JHH1 = JHH1 liver cancer cell line, 6 days culture
Description: as §1, §2

JHH2 = JHH2 liver cancer cell line, 6 days culture
Description: as §1, §2

SNU182 = SNU182 liver cancer cell line, 6 days culture
Description: as §1, §2

LNCAP-clone-FGC = LNCAP-clone-FGC tumor cell line, 6 days culture
Description: as §1, §2

AN3CA = AN3CA tumor cell line, 6 days culture
Description: as §1, §2

SK-HEP-1 = SK-HEP-1 liver cancer cell line, 6 days culture
Description: as §1, §2

NCI-H661 = NCI-H661 tumor cell line, 6 days culture
Description: as §1, §2

SNU739 = SNU739 liver cancer cell line, 6 days culture
Description: as §1, §2

JHH6 = JHH6 liver cancer cell line, 6 days culture
Description: as §1, §2

MG63 = MG63 tumor cell line, 6 days culture
Description: as §1, §2

NCI-H2170 = NCI-H2170 tumor cell line, 6 days culture
Description: as §1, §2

NCI-H1648 = NCI-H1648 tumor cell line, 6 days culture
Description: as §1, §2

MDA-MB-435S = MDA-MB-435S tumor cell line, 6 days culture
Description: as §1, §2

SNU475 = SNU475 liver cancer cell line, 6 days culture
Description: as §1, §2

K562 = K562 tumor cell line, 6 days culture
Description: as §1, §2

Molecule Cc1ccc(F)c(NC(=O)Nc2ccc(-c3cccc4[nH]nc(NC(=O)CCCCCCCCCCCNC(=O)C[C@H](N)C(=O)N[C@@H](CCC(=O)N[C@@H](CCC(=O)N[C@@H](CCC(=O)N[C@@H](CCC(=O)N[C@@H](CCC(=O)N[C@@H](CCC(=O)N[C@@H](CCC(=O)N[C@@H](CCC(=O)N[C@@H](CCC(=O)O)C(=O)O)C(=O)O)C(=O)O)C(=O)O)C(=O)O)C(=O)O)C(=O)O)C(=O)O)C(=O)O)c34)cc2)c1 [Compound 9] has an IC50 (MFM-223) of over 100 µM, an IC50 (TE-15) of over 100 µM and an IC50 (HEPG2) of 33.6 µM. For the same molecule, the IC50 (TE-6) was over 100 µM, the IC50 (MDA-MB-231) was over 100 µM and the IC50 (SNU354) was over 100 µM. It also gave an IC50 (22RV1) of over 100 µM, an IC50 (HUH6) of over 100 µM and an IC50 (SNU387) of over 100 µM. It also gave an IC50 (Li-7) of over 100 µM, an IC50 (SNU761) of over 100 µM and an IC50 (JHH7) of over 100 µM. For the same molecule, the IC50 (JHH1) was over 100 µM, the IC50 (JHH2) was over 100 µM and the IC50 (SNU182) was over 100 µM. It also gave an IC50 (LNCAP-clone-FGC) of over 100 µM, an IC50 (AN3CA) of 10.3 µM and an IC50 (SK-HEP-1) of over 100 µM. It also gave an IC50 (NCI-H661) of over 100 µM, an IC50 (SNU739) of over 100 µM and an IC50 (JHH6) of over 100 µM. For the same molecule, the IC50 (MG63) was over 100 µM, the IC50 (NCI-H2170) was over 100 µM and the IC50 (NCI-H1648) was over 100 µM. It also gave an IC50 (MDA-MB-435S) of over 100 µM, an IC50 (SNU475) of over 100 µM and an IC50 (K562) of over 100 µM.

Work on Cc1ccc(F)c(NC(=O)Nc2ccc(-c3cccc4[nH]nc(NC(=O)CCCCCNC(=O)C[C@H](N)C(=O)O)c34)cc2)c1 [Compound 11] yielded an IC50 (MFM-223) of over 100 µM, an IC50 (TE-15) of over 100 µM and an IC50 (HEPG2) of 30.1 µM. It also gave an IC50 (TE-6) of over 100 µM, an IC50 (MDA-MB-231) of over 100 µM and an IC50 (SNU354) of over 100 µM. It also gave an IC50 (22RV1) of over 100 µM, an IC50 (HUH6) of over 100 µM and an IC50 (SNU387) of over 100 µM. It also gave an IC50 (Li-7) of over 100 µM, an IC50 (SNU761) of over 100 µM and an IC50 (JHH7) of over 100 µM. The IC50 (JHH1) was over 100 µM, the IC50 (JHH2) was over 100 µM and the IC50 (SNU182) was over 100 µM. For the same molecule, the IC50 (LNCAP-clone-FGC) was over 100 µM, the IC50 (AN3CA) was 17.4 µM and the IC50 (SK-HEP-1) was over 100 µM. For the same molecule, the IC50 (NCI-H661) was over 100 µM, the IC50 (SNU739) was over 100 µM and the IC50 (JHH6) was over 100 µM. For the same molecule, the IC50 (MG63) was over 100 µM, the IC50 (NCI-H2170) was over 100 µM and the IC50 (NCI-H1648) was over 100 µM. It also gave an IC50 (MDA-MB-435S) of over 100 µM, an IC50 (SNU475) of over 100 µM and an IC50 (K562) of over 100 µM.

Molecule Cc1ccc(F)c(NC(=O)Nc2ccc(-c3cccc4[nH]nc(NC(=O)C[C@H](N)C(=O)N[C@@H](CCC(=O)O)C(=O)O)c34)cc2)c1 [Compound 1] has an IC50 (MFM-223; Homo sapiens, 144 h) of 3.59 µM, an IC50 (TE-15; Homo sapiens, 144 h) of 2.94 µM and an IC50 (HEPG2; Homo sapiens, 144 h) of 1.35 µM. For the same molecule, the IC50 (TE-6; Homo sapiens, 144 h) was 10.5 µM, the IC50 (MDA-MB-231; Homo sapiens, 144 h) was 7.61 µM and the IC50 (SNU354; Homo sapiens, SNU-354, 144 h) was 3.59 µM. It also gave an IC50 (22RV1; Homo sapiens, 144 h) of 8.16 µM, an IC50 (HUH6; Homo sapiens, HuH-6, 144 h) of 52.9 µM and an IC50 (SNU387; Homo sapiens, SNU-387, 144 h) of 22.3 µM. It also gave an IC50 (Li-7; 144 h) of 7.29 µM, an IC50 (SNU761; 144 h) of 12.6 µM and an IC50 (JHH7; 144 h) of 1.54 µM. The IC50 (JHH1; 144 h) was 21.4 µM, the IC50 (JHH2; JHH-2, 144 h) was 43.6 µM and the IC50 (SNU182; Homo sapiens, SNU-182, 144 h) was 30.9 µM. For the same molecule, the IC50 (LNCAP-clone-FGC; Homo sapiens, 144 h) was 15.6 µM, the IC50 (AN3CA; Homo sapiens, AN3-CA, 144 h) was 0.34 µM and the IC50 (SK-HEP-1; Homo sapiens, SK-HEP1, 144 h) was 16.6 µM. For the same molecule, the IC50 (NCI-H661; Homo sapiens, 144 h) was 20.2 µM, the IC50 (SNU739; SNU-739, 144 h) was 7.63 µM and the IC50 (JHH6; 144 h) was 6.57 µM. For the same molecule, the IC50 (MG63; Homo sapiens, MG-63, 144 h) was 2.34 µM, the IC50 (NCI-H2170; Homo sapiens, 144 h) was 5.32 µM and the IC50 (NCI-H1648; Homo sapiens, 144 h) was 10.1 µM. The IC50 (MDA-MB-435S; Homo sapiens, 144 h) was 10.5 µM, the IC50 (SNU475; Homo sapiens, SNU-475, 144 h) was 4.81 µM and the IC50 (K562; Homo sapiens, 144 h) was 17.2 µM.
